Data from patent US20220387457A1 (Qlaris Bio, Inc., priority 2020, published 2022).

Assays:
[1] = target: T1, placenta-derived human alkaline phosphatase (Homo sapiens, UniProt P05187); assay: Dose- and time-dependent conversion of CKLP1 to levcromakalim by placenta-derived human alkaline phosphatase, pH 10; format: biochemical
T1 construct: varying concentrations of placenta-derived human alkaline phosphatase; from tissue; host or cells: human placenta
Method: To activate CKLP1, the phosphate is hydrolyzed from phosphatases to produce leveromakalim, the active moiety that can open (activate) ATP-sensitive potassium channels.
In the first experiment, a fixed concentration of CKLP1 solution was incubated with varying concentrations of placenta-derived human alkaline phosphatase. To accomplish this, placenta-derived human alkaline phosphatase (0.0002 U) in a 100-μL volume was added to each of thirteen 1.5-mL tubes. To each tube, CKLP1 was then added at a fixed concentration [10 mM (0.4%)]. Tubes were inverted twice and incubated in a water bath at 37° C. At each of 13 different time points (0, 1, 2.5, 5, 15, and 30 minutes and at 1, 2, 4, 8, 24, 48, and 72 hours), a single tube was removed, and the reaction was stopped by the addition of 2 volumes (200 μL) of acetonitrile. Samples were stored at −80° C. The experiment was repeated with 10 mM CKLP1 (0.4%) in the presence of placenta-derived human alkaline phosphatase at concentrations of 0.002 U, 0.02 U, and 0.2 U. All assays were performed at pH 10.
In a second experiment, a fixed concentration of placenta-derived human alkaline phosphatase was incubated with varying concentrations of CKLP1. To accomplish this, a fixed concentration of 0.02 U of placenta-derived human alkaline phosphatase in a 100-μL volume was added to each of thirteen 1.5-mL tubes. To each tube, CKLP1 was then added [0.01 mM (0.0004%)]. Tubes were inverted twice and incubated in a water bath at 37° C. At each of 13 different time points (0, 1, 2.5, 5, 15, and 30 minutes and at 1, 2, 4, 8, 24, 48, and 72 hours), a single tube was removed and the reaction was stopped by the addition of 2 volumes (200 μL) of acetonitrile. Samples were stored at −80° C. The experiment was repeated with the same concentration of placenta-derived human alkaline phosphatase (0.02 U) and various concentrations of CKLP1 [0.1 mM (0.004%), 1 mM (0.04%), 10 mM (0.4%), 20 mM (0.8%), and 40 mM (1.6%)]. All assays were performed at pH 10.

[2] = tested on: normotensive hound dogs (IOP); assay: Dose response of CKLP1 on IOP in hound dogs; format: in vivo, hound dog; conditions: for IOP lowering: 5 consecutive days, vs baseline
Method: In order to determine the optimal topical ocular dose of CKLP1 for subsequent pharmacokinetic studies, hound dogs (n=3) were treated with four different concentrations of CKLP1 (5 mM, 10 mM, 15 mM and 20 mM) once daily for 5 consecutive days. […] No difference in IOP reduction was noted between the 10 and 15 mM doses (p=0.57). To utilize the lowest dose concentration with effective IOP reduction, a 50 μL topical ocular administration of 10 mM CKLP1 was selected as the optimal dose for all subsequent experiments.
IOP was measured three times each day at times that corresponded to 1 hour, 4 hours and 23 hours post treatment. The average of the measurements at three time points on any given day was recorded as the daily IOP.
For the dose response study, baseline IOP measurements were obtained and recorded (three consecutive days prior to treatment). One eye of each dog was treated with a 50 μL topical ocular administration of 5 mM CKLP1 and the contralateral eye was treated with 10 mM CKLP1 once daily for 5 consecutive days. After 5 days, the eyes that received 5 mM CKLP1 was treated with 15 mM CKLP1 while the eye with 10 mM CKLP1 received 20 mM CKLP1. IOPs were measured every day at times corresponding to 1, 4, and 23 hours post treatment. For all experiments, the right eye was used as control while the left eye was selected as the treatment eye.

[3] = tested on: African green monkeys (IOP); assay: Effect of CKLP1 on IOP in African green monkeys; format: in vivo, African green monkey
Method: To further validate the IOP lowering effects of CKLP1 in large animal models, one eye of five African green monkeys was treated with topical ocular administration of 10 mM CKLP1, while the contralateral eye received vehicle (PBS). Baseline IOP in control and treated eyes were 20.1±1.8 mmHg and 21.9±2.5 mmHg, respectively.
For treatment days, 10 mM CKLP1 (dissolved in PBS) was added to one eye of each monkey in a 50 μl topical ocular administration, once daily, for 7 consecutive days, while the contralateral eye received a 50 μl ocular administration of vehicle (PBS).

[4] = tested on: beagle dogs; assay: Safety findings, 28-day topical ophthalmic dosing in beagle dogs; format: in vivo, beagle dog
Method: In the study, dogs (3 males and 3 females) received bilateral daily topical administration of 40 μL/eye of 2.0%, 4.0%, or 8.0% as measured in mg/mL (equivalent to 0.8, 1.6, or 3.2 mg CKLP1 per eye) of CKLP1 in phosphate buffered saline. Based on an average male dog weight of 7.9 kg at the start of the study, these doses were equivalent to 0.20 mg/kg, 0.41 mg/kg, or 0.81 mg/kg and based on an average female dog weight of 6.0 kg at the start of the study, these doses were equivalent to 0.27 mg/kg, 0.53 mg/kg, or 1.07 mg/kg. Blood was collected for toxicokinetic analysis pre-dose and at 1, 2, 4, 8, 12, and 24 hours post dosing on days 1 and 28. In addition, 2 animals of each gender were allowed 336 hours (14 days) of recovery time following the final dose, at which point final blood samples were obtained.

[5] = tested on: mice (IOP); conditions: previously reported; cited from earlier work
[6] = tested on: hound dogs; assay: Histology, blood chemistry and tolerability after bilateral topical CKLP1 in hound dogs
Description: To evaluate local and systemic side effects of bilateral topical administration of CKLP1 to the eyes, additional tissue samples were harvested for histological examination. Tissues collected and fixed during necropsy were processed into paraffin blocks, sectioned, and stained with hematoxylin and eosin.

[7] = 10 mM CKLP1 topical once daily, 7 days

T1 sequence (P05187 23-506): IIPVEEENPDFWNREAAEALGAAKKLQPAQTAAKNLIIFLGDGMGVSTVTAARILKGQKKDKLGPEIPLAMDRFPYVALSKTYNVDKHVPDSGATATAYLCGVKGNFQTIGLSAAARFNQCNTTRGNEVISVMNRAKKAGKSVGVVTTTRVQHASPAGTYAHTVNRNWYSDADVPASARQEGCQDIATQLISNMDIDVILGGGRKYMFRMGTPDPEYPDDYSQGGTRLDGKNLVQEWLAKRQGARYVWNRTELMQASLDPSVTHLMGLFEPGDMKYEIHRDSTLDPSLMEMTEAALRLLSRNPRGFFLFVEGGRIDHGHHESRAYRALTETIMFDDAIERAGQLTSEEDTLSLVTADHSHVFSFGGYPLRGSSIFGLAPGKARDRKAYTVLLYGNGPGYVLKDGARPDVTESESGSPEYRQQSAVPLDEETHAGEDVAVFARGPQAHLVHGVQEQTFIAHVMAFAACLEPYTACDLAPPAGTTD

CC1(C)Oc2ccc(C#N)cc2[C@@H](N2CCCC2=O)[C@@H]1OP(=O)(O)O [CKLP1]
conversion rate of CKLP1 to levcromakalim at 24 hours ([1]; ALP 0.02 U/100 μL, CKLP1 0.01 mM): 26.9%
conversion rate of CKLP1 to levcromakalim at 24 hours ([1]; ALP 0.02 U/100 μL, CKLP1 0.1 mM): 20.0%
conversion rate of CKLP1 to levcromakalim at 24 hours ([1]; ALP 0.02 U/100 μL, CKLP1 1 mM): 5.2%
conversion rate of CKLP1 to levcromakalim at 24 hours ([1]; ALP 0.02 U/100 μL, CKLP1 10 mM): 4.9%
conversion rate of CKLP1 to levcromakalim at 24 hours ([1]; ALP 0.02 U/100 μL, CKLP1 20 mM): 3.2%
conversion rate of CKLP1 to levcromakalim at 24 hours ([1]; ALP 0.02 U/100 μL, CKLP1 40 mM): 1.7%
conversion rate of CKLP1 to levcromakalim at 24 hours ([1]; CKLP1 10 mM, ALP 0.0002 U/100 μL): 0.4%
conversion rate of CKLP1 to levcromakalim at 24 hours ([1]; CKLP1 10 mM, ALP 0.002 U/100 μL): 1.3%
conversion rate of CKLP1 to levcromakalim at 24 hours ([1]; CKLP1 10 mM, ALP 0.02 U/100 μL): 4.8%
conversion rate of CKLP1 to levcromakalim at 24 hours ([1]; CKLP1 10 mM, ALP 0.2 U/100 μL): 13.7%
conversion of CKLP1 to levcromakalim, maximum ([1]; CKLP1 fixed 10 mM (0.4%), ALP 0.0002-0.2 U/100 μL, up to 72 hours, pH 10, 37° C.): ≤ 21%
IOP lowering, all concentrations ([2]; 5 mM, 10 mM, 15 mM and 20 mM, p≤0.01): significant IOP lowering
IOP lowering ([2]; 10 mM CKLP1 topical once daily): 2.3±0.5 mmHg
IOP lowering ([2]; 15 mM CKLP1 topical once daily): 2.5±0.4 mmHg
IOP reduction compared to baseline [3, 7]: 3.8±1.8 mmHg
change in IOP [3, 7]: 16.7±6.7%
IOP lowered by (summary) ([3]; African green monkeys): approximately 17%
non-adverse ocular effects ([4]; 3.2 mg/eye/dose (8%)): slight to moderate redness (congestion)
microscopic findings, lacrimal gland ([4]; 2 females at 3.2 mg/eye/dose (8%)): mild lacrimal gland acinar atrophy
reversibility of ocular findings ([4]; 14-day recovery period): all ocular findings were fully recovered
microscopic findings, corneal epithelium ([4]; males at ≥1.6 mg/eye/dose (4%) and 1 female at 3.2 mg/eye/dose (8%)): mild increased mitoses in the corneal epithelium
no-observed-adverse-effect level (NOAEL) ([4]; topical, 28 days, % as measured in mg/mL): 8.0%
IOP lowered by [5]: approximately 17%
overall tolerability, ocular or systemic toxicity ([6]; bilateral eye treatment with CKLP1): well tolerated and did not result in any observed ocular or systemic toxicity
histology of 40 different tissues ([6]; bilateral topical 10 mM CKLP1, 12-13 days): none of the analyzed tissues showed any significant pathology
blood chemistry ([6]; bilateral topical 10 mM CKLP1, except albumin, slightly lower in treated and control): within normal range
